Results published in patent US10765114B2, “4-amino-6-(pyridyl and 2-substitutedphenyl)-picolinates and 6-amino-2-(pyridyl and 2-substitutedphenyl)-pyrimidine-4-carboxylates and their use as herbicides” (Dow AgroSciences LLC, priority 2013, dated 2020).
Read-outs that look alike come from different tables or passages of the source.

Tests used:
[1] = test system: Key Grass and Sedge Weeds as well as Grass Crops; assay: Post-Emergent Test II (Table 6); format: in vivo; conditions: post-emergence, 336 h, 14 days after application; for pest or weed control at 70 g/ha: 70 g ai/ha; for pest or weed control at 140 g/ha: 140 g ai/ha
Procedure, shortened: (§1)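 Visual injury ratings (0 = no injury, 100 = complete kill) taken 14 days after treatment, relative to untreated controls. Compounds, in an acetone/DMSO aqueous carrier with crop oil and surfactant, were applied by track sprayer at 187 L/ha, in a twofold dilution series from the top rate, to plants at the first to second true-leaf stage.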

[2] = test system: Key Broadleaf Weed and Crop Species; assay: Post-Emergent Test II (Table 5); format: in vivo; conditions: post-emergence, 336 h; for pest or weed control at 70 g/ha: application rate 70 (kg ai/ha; footnote: g ai/ha); for pest or weed control at 140 g/ha: application rate 140 (kg ai/ha; footnote: g ai/ha)
Procedure, shortened: as §1

[3] = CYPSS, read-out: Visual Growth Reduction (%) 14 Days After Application CYPSS
[4] = DIGSA: crabgrass (Digitaria sanguinalis), read-out: Visual Growth Reduction (%) 14 Days After Application DIGSA
[5] = ORYSS (crop), read-out: Visual Growth Reduction (%) 14 Days After Application ORYSS
[6] = SORVU: grain sorghum (Sorghum vulgare), read-out: Visual Growth Reduction (%) 14 Days After Application SORVU
[7] = TRZSS (crop), read-out: Visual Growth Reduction (%) 14 Days After Application TRZSS
[8] = ZEAMX: maize, corn (Zea mays), read-out: Visual Growth Reduction (%) 14 Days After Application ZEAMX
[9] = Abutilon theophrasti, ABUTH: velvetleaf (Abutilon theophrasti), read-out: Visual Growth Reduction (%) 14 Days After Application ABUTH
[10] = Amaranthus retroflexus, AMARE: redroot pigweed (Amaranthus retroflexus), read-out: Visual Growth Reduction (%) 14 Days After Application AMARE
[11] = Brassica napus, BRSSS: oilseed rape, canola (Brassica napus), read-out: Visual Growth Reduction (%) 14 Days After Application BRSSS
[12] = Chenopodium album, CHEAL: lambsquarters (Chenopodium album), read-out: Visual Growth Reduction (%) 14 Days After Application CHEAL
[13] = Euphorbia heterophylla, EPHHL: wild poinsettia (Euphorbia heterophylla), read-out: Visual Growth Reduction (%) 14 Days After Application EPHHL
[14] = Helianthus annuus, HELAN: sunflower (Helianthus annuus), read-out: Visual Growth Reduction (%) 14 Days After Application HELAN
[15] = Viola tricolor, VIOTR: wild pansy (Viola tricolor), read-out: Visual Growth Reduction (%) 14 Days After Application VIOTR
[16] = ECHSS, read-out: Visual Growth Reduction (%) 14 Days After Application ECHSS
[17] = SETFA: giant foxtail (Setaria faberi), read-out: Visual Growth Reduction (%) 14 Days After Application SETFA

SMILES	pest or weed control at 70 g/ha [1, 3]	pest or weed control at 140 g/ha [1, 3]	pest or weed control at 70 g/ha [1, 4]	pest or weed control at 140 g/ha [1, 4]	pest or weed control at 70 g/ha [1, 5]	pest or weed control at 140 g/ha [1, 5]	pest or weed control at 70 g/ha [1, 6]	pest or weed control at 140 g/ha [1, 6]	pest or weed control at 70 g/ha [1, 7]	pest or weed control at 140 g/ha [1, 7]	pest or weed control at 70 g/ha [1, 8]	pest or weed control at 140 g/ha [1, 8]	pest or weed control at 70 g/ha [2, 9]	pest or weed control at 140 g/ha [2, 9]	pest or weed control at 70 g/ha [2, 10]	pest or weed control at 140 g/ha [2, 10]	pest or weed control at 70 g/ha [2, 11]	pest or weed control at 140 g/ha [2, 11]	pest or weed control at 70 g/ha [2, 12]	pest or weed control at 140 g/ha [2, 12]	further results
Cc1c(-c2ccc(C(F)(F)F)nc2)nc(C(=O)O)c(Cl)c1N [Compound 51, 4-amino-5-chloro-3-methyl-6′-(trifluoromethyl)-[2,3′-bipyridine]-6-carboxylic acid]	95 to 100%	95 to 100%	60 to 74%	60 to 74%	0 to 29%	0 to 29%	75 to 84%	75 to 84%	30 to 44%	45 to 59%	60 to 74%	60 to 74%	0 to 29%	0 to 29%	0 to 29%	0 to 29%	60 to 74%	85 to 94%	0 to 29%	85 to 94%	pest or weed control at 70 g/ha [2, 13]: 0 to 29%; pest or weed control at 140 g/ha [2, 13]: 0 to 29%; pest or weed control at 70 g/ha [2, 14]: 85 to 94%; pest or weed control at 140 g/ha [2, 14]: 85 to 94%; pest or weed control at 70 g/ha [2, 15]: 0 to 29%; pest or weed control at 140 g/ha [2, 15]: 0 to 29%; melting point: 140 to 160 °C
C#Cc1c(-c2cc(N)c(Cl)c(C(=O)OC)n2)ccc(Cl)c1F [Compound 75, methyl 4-amino-3-chloro-6-(4-chloro-2-ethynyl-3-fluorophenyl)picolinate]	0 to 29%	0 to 29%	0 to 29%	0 to 29%	0 to 29%	0 to 29%	0 to 29%	0 to 29%	0 to 29%	0 to 29%	0 to 29%	0 to 29%	0 to 29%	0 to 29%	0 to 29%	0 to 29%	0 to 29%	0 to 29%	75 to 84%	75 to 84%	pest or weed control at 70 g/ha [1, 16]: 0 to 29%; pest or weed control at 140 g/ha [1, 16]: 0 to 29%; pest or weed control at 70 g/ha [1, 17]: 0 to 29%; pest or weed control at 140 g/ha [1, 17]: 0 to 29%; pest or weed control at 70 g/ha [2, 13]: 0 to 29%; pest or weed control at 140 g/ha [2, 13]: 0 to 29%; pest or weed control at 70 g/ha [2, 14]: 0 to 29%; pest or weed control at 140 g/ha [2, 14]: 0 to 29%; pest or weed control at 70 g/ha [2, 15]: 0 to 29%; pest or weed control at 140 g/ha [2, 15]: 0 to 29%
Cc1c(-c2nc(C(=O)O)c(Cl)c(N)c2F)ccc(C(F)(F)F)c1F [Compound 55]	0 to 29%	0 to 29%	0 to 29%	0 to 29%	0 to 29%	0 to 29%	0 to 29%	0 to 29%	0 to 29%	0 to 29%	45 to 59%	45 to 59%	45 to 59%	45 to 59%	0 to 29%	0 to 29%	30 to 44%	45 to 59%	60 to 74%	85 to 94%	pest or weed control at 70 g/ha [1, 16]: 0 to 29%; pest or weed control at 140 g/ha [1, 16]: 0 to 29%; pest or weed control at 70 g/ha [2, 13]: 0 to 29%; pest or weed control at 140 g/ha [2, 13]: 45 to 59%; pest or weed control at 70 g/ha [2, 14]: 85 to 94%; pest or weed control at 140 g/ha [2, 14]: 95 to 100%; pest or weed control at 70 g/ha [2, 15]: 0 to 29%; pest or weed control at 140 g/ha [2, 15]: 0 to 29%
